Like-named read-outs stand apart in the source and are kept apart here.
Columns and labels:
[1] = test system: splenic lymphocytes isolated from C57BL/6 mice and CBA mice; assay: Immunosuppression ([3H]TMD incorporation in mouse splenic lymphocytes); assay type: cell-based; conditions: Mus musculus, Splenic lymphocyte
[2] = test system: cytokine release; assay: Panel of standard cell-based in vitro assays evaluating cytokine release inhibition; conditions: prodrugs compared to the steroid drugs (Examples 27 and 62, respectively)
Procedure: The selected compounds of the invention were tested in a panel of standard, cell-based in vitro assays evaluating the cytokine release inhibition and thus the anti-inflammatory activity of a test article. Several potent steroid analogs were identified, namely compounds described in Examples 23, 27, 43, 59 and 62. […] Therefore by masking the pharmacological properties of a respective steroid the mutual prodrug mitigates the oropharyngeal side effects and confines the antiinflammatory activity of a steroid to the endobronchial space, where the lung enzymes (specifically alkaline phosphatase) release the pharmacologically active steroid (see Examples 141-143).

[3] = Control solution without enzyme (pH 7.4 buffer, 37° C.); assay type: physicochemical; conditions: 25 to 50 hours, LCMS
[4] = test system: TNF-α; assay: TNF-α secretion (h) (PBMC); assay type: cell-based, human; conditions: for IC50: Homo sapiens, 24 h, read-out: TNF-α secretion IC50
[5] = test system: alkaline phosphatase; assay: Conversion of mutual prodrugs after exposure to alkaline phosphatase (ALP experiment); conditions: for course in the reaction solution (with enzyme): alkaline phosphatase ~600 ng/μl, pH 7.4, 37° C., LCMS; for Prodrug 17 Concentration: mutual prodrug 17 + alkaline phosphatase; for Steroid 13 Concentration / Prodrug 16 Concentration: mutual prodrug 16 + alkaline phosphatase;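 on all read-outs here: mutual prodrug and its released products quantified by LCMS over time in buffer with alkaline phosphatase, compared against enzyme-free control buffer, incubations running 25–50 hours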
Procedure: Reaction and control solutions were prepared by adding a 500 μL aliquot of a ˜200 ng/μl solution in 1:1 acetonitrile/water of and the compound 16 (or alternatively 17) to 500 μl of a pH 7.4 buffer solution, containing 5 mM tris(hydroxymethyl)aminomethane, 1 mM ZnCl2, 1 mM MgCl2. For the reaction solutions, the buffer also contained approximately 600 ng/μl of alkaline phosphatase (Sigma-Aldrich) whereas the control buffer solutions contained no enzyme. The reaction and control solutions were incubated at 37° C. for 25 to 50 hours. The solutions were analyzed periodically for the respective mutual prodrug and reaction products by LCMS.
The concentration of the alkaline phosphatase in the reaction buffer was ˜600 ng/μL (the enzyme activity of the solution was not determined).
The concentration of the alkaline phosphatase in the buffer added to the stock solution was ˜600 ng/μl (the enzyme activity of the solution was not determined).

[6] = test system: IL-1β; assay: IL-1β secretion (h) (PBMC); assay type: cell-based; conditions: Homo sapiens, LPS (1 μg/ml), 24 h/37° C., EIA
[7] = read-out: Immunosuppresion IC50

C[C@]12C=CC(=O)C=C1CCC1C3C[C@H]4OC(c5ccc[n+](Cc6ccc(C(O)CNCCCCCCOCCCCc7ccccc7)cc6OP(=O)(O)O)c5)O[C@@]4(C(=O)CO)[C@@]3(C)C[C@H](O)[C@@]12F (stereo partly shown) [Example 133]
IC50 [1, 7]: 180 nM | anti-inflammatory activity (cytokine release inhibition), assessment in words [2]: less active or inactive | compounds detected in the control solution (without enzyme) [3]: Only the mutual prodrug 17 was detected | IC50 [4]: > 1000 nM | course in the reaction solution (with enzyme) [5]: disappearance of the mutual prodrug | Prodrug 17 Concentration ([5]; 0.00 Hours @ 37° C.): 214.4 nmol/mL | Prodrug 17 Concentration ([5]; 0.53 Hours @ 37° C.): 112.6 nmol/mL | Prodrug 17 Concentration ([5]; 1.05 Hours @ 37° C.): 44.9 nmol/mL | Prodrug 17 Concentration ([5]; 2.10 Hours @ 37° C.): 9.8 nmol/mL | Prodrug 17 Concentration ([5]; 3.16 Hours @ 37° C.): 4.2 nmol/mL | Prodrug 17 Concentration ([5]; 4.21 Hours @ 37° C.): 3.7 nmol/mL | Prodrug 17 Concentration ([5]; 10.52 Hours @ 37° C.): 0.0 nmol/mL | Prodrug 17 Concentration ([5]; 19.99 Hours @ 37° C.): 0.0 nmol/mL | Prodrug 17 Concentration ([5]; 29.46 Hours @ 37° C.): 0.0 nmol/mL | Prodrug 17 Concentration ([5]; 39.99 Hours @ 37° C.): 0.0 nmol/mL | Prodrug 17 Concentration ([5]; 49.46 Hours @ 37° C.): 0.0 nmol/mL

CN1CCN(CC(=O)[C@@]23O[C@H](C4CCCCC4)O[C@@H]2C[C@H]2[C@@H]4CCC5=CC(=O)C=C[C@]5(C)[C@@]4(F)[C@@H](O)C[C@@]23C)CC1 [Example 27, 16,17-[(Cyclohexylmethylene)bis(oxy)]-9-fluoro-11-hydroxy-21-(4-methylpiperazyn-1-yl)-pregna-1,4-diene-3,20-dione[11β,16α(R)]]
IC50 ([1]; read-out: Immunosuppresion IC50, mouse splenic lymphocytes, 72 h/37° C., [3H]TMD incorporation, "Not active" = less than 25% inhibition at 1000 nM): 12 nM | anti-inflammatory activity (cytokine release inhibition), assessment in words [2]: potent | IC50 [6]: 36 nM | TNF-α secretion IC50 ([4]; LPS (1 μg/ml), 24 h/37° C., EIA, "Not active" = less than 25% inhibition at highest tested concentration 1000 nM): Not active | Steroid 13 Concentration ([5]; 0.00 Hours @ 37° C.): 0.0 nmol/mL | Steroid 13 Concentration ([5]; 0.59 Hours @ 37° C.): 1.6 nmol/mL | Steroid 13 Concentration ([5]; 1.19 Hours @ 37° C.): 4.1 nmol/mL | Steroid 13 Concentration ([5]; 2.96 Hours @ 37° C.): 15.3 nmol/mL | Steroid 13 Concentration ([5]; 3.56 Hours @ 37° C.): 20.2 nmol/mL | Steroid 13 Concentration ([5]; 4.15 Hours @ 37° C.): 21.6 nmol/mL | Steroid 13 Concentration ([5]; 10.67 Hours @ 37° C.): 49.5 nmol/mL | Steroid 13 Concentration ([5]; 15.41 Hours @ 37° C.): 54.6 nmol/mL | Steroid 13 Concentration ([5]; 19.56 Hours @ 37° C.): 62.9 nmol/mL | Steroid 13 Concentration ([5]; 24.30 Hours @ 37° C.): 67.3 nmol/mL | Steroid 13 Concentration ([5]; 30.82 Hours @ 37° C.): 69.3 nmol/mL | Steroid 13 Concentration ([5]; 34.97 Hours @ 37° C.): 66.5 nmol/mL

C[C@]12C=CC(=O)C=C1CC[C@H]1[C@@H]3C[C@H]4O[C@@H](C5CCCCC5)O[C@@]4(C(=O)CN4CC[N+](C)(Cc5ccc(C(O)CNCCCCCCOCCCCc6ccccc6)cc5OP(=O)(O)O)CC4)[C@@]3(C)C[C@H](O)[C@@]12F (stereo partly drawn) [Example 107, Salmeterol-phosphate-16,17-[(Cyclohexylmethylene)bis(oxy)]-9-fluoro-11-hydroxy-21-(4-methylpiperazinium)-pregna-1,4-diene-3,20-dione[11β,16α(R)]]
IC50 [1, 7]: 80 nM | anti-inflammatory activity (cytokine release inhibition), assessment in words [2]: less active or inactive | compounds detected in the control solution (without enzyme) [3]: Only the mutual prodrug 16 was detected | IC50 [4]: 810 nM | course in the reaction solution (with enzyme) [5]: disappearance of the mutual prodrug 16 | Prodrug 16 Concentration ([5]; 0.00 Hours @ 37° C.): 91.0 nmol/mL | Prodrug 16 Concentration ([5]; 0.59 Hours @ 37° C.): 87.7 nmol/mL | Prodrug 16 Concentration ([5]; 1.19 Hours @ 37° C.): 78.6 nmol/mL | Prodrug 16 Concentration ([5]; 2.96 Hours @ 37° C.): 67.8 nmol/mL | Prodrug 16 Concentration ([5]; 3.56 Hours @ 37° C.): 62.3 nmol/mL | Prodrug 16 Concentration ([5]; 4.15 Hours @ 37° C.): 61.6 nmol/mL | Prodrug 16 Concentration ([5]; 10.67 Hours @ 37° C.): 43.1 nmol/mL | Prodrug 16 Concentration ([5]; 15.41 Hours @ 37° C.): 36.7 nmol/mL | Prodrug 16 Concentration ([5]; 19.56 Hours @ 37° C.): 33.1 nmol/mL | Prodrug 16 Concentration ([5]; 24.30 Hours @ 37° C.): 29.3 nmol/mL | Prodrug 16 Concentration ([5]; 30.82 Hours @ 37° C.): 24.8 nmol/mL | Prodrug 16 Concentration ([5]; 34.97 Hours @ 37° C.): 23.0 nmol/mL

— patent US20100209508A1, “Substituted Phenylphosphates as Mutual Prodrugs of Steroids and ß-Agonists for the Treatment of Title Pulmonary Inflammation and Bronchoconstriction” (CORUS PHARMA, INC., priority 2005, published 2010)
